doi:10.1101/2020.10.13.20211417v1 (medRxiv, 2020)

What was measured:
Type in all cases: in vivo, human
[1] = system: patients with acute primary supratentorial ICH; assay: Adverse events and safety endpoints, CATCH trial
[2] = system: patients with acute primary supratentorial ICH; assay: Hematoma volume from CT images
[3] = Noncompartmental plasma pharmacokinetics of CN-105 in CATCH participants; details: for clearance / Vd / half-life: human, 1 mg/kg; for Vd: Vz
[4] = Related, Treatment Emergent Non-Serious AEs
[5] = Treatment Emergent Non-Serious AEs
[6] = non-serious TEAE events, Total, Total severity

Ac-VSRRR-NH2 [CN-105]
participants experiencing treatment emergent SAEs ([1]; 9 of 38 participants): 24% | participants experiencing nonfatal SAEs ([1]; 12 of 38 participants): 32% | central nervous system (CNS) infection ([1]; 38 participants): No participants | changes in electrocardiogram parameters ([1]; 38 participants): No participant experienced changes | treatment emergent AE constipation, participants ([1]; 38 participants): 26% | treatment emergent AE hypomagnesemia, participants ([1]; 38 participants): 18% | treatment emergent AE hyponatremia, participants ([1]; 38 participants): 18% | treatment emergent AE hypophosphatemia, participants ([1]; 38 participants): 21% | treatment emergent AE leukocytosis, participants ([1]; 38 participants): 24% | treatment emergent AE nausea, participants ([1]; 38 participants): 18% | treatment emergent AE pain, participants ([1]; 38 participants): 29% | treatment emergent AE pyrexia, participants ([1]; 38 participants): 16% | # of Events ([1]; All Non-Serious AEs): 237 | # of Events, Mild ([1]; All Non-Serious AEs): 183 | # of Events, Moderate ([1]; All Non-Serious AEs): 51 | # of Events, Severe ([1]; All Non-Serious AEs): 3 | # of Subjects ([1]; All Non-Serious AEs): 31 | # of Subjects, Mild ([1]; All Non-Serious AEs): 30 | # of Subjects, Moderate ([1]; All Non-Serious AEs): 19 | # of Subjects, Severe ([1]; All Non-Serious AEs): 2 | participants with in-hospital neurological deterioration ([1]; Five of 38, increase of NIHSS>2 from baseline persisting more than 24 hours): 13% | # of Events [1, 4]: 86 | # of Events, Mild [1, 4]: 73 | # of Events, Moderate [1, 4]: 13 | # of Events, Severe [1, 4]: 0 | # of Subjects [1, 4]: 16 | # of Subjects, Mild [1, 4]: 16 | # of Subjects, Moderate [1, 4]: 5 | # of Subjects, Severe [1, 4]: 0 | participants who died prior to 30-day follow up ([1]; Three of 38, in-hospital, related to primary disease): 8% | # of Events [1, 5]: 230 | # of Events, Mild [1, 5]: 177 | # of Events, Moderate [1, 5]: 50 | # of Events, Severe [1, 5]: 3 | # of Subjects [1, 5]: 30 | # of Subjects, Mild [1, 5]: 29 | # of Subjects, Moderate [1, 5]: 19 | # of Subjects, Severe [1, 5]: 2 | participants receiving treatment for elevated intracranial pressure ([1]; Two of 38, both died in-hospital of brain herniation from index ICH): 5% | SAE Drug administration error (Medication administration error), Relatedness ([1]; all SAEs, subject 101-003, Moderate, day 2-2, Recovered / Resolved): Unrelated | SAE Pneumonia (Left upper lobe pneumonia), Relatedness ([1]; all SAEs, subject 101-004, Moderate, day 1-8, Recovered / Resolved): Related | SAE Failure to thrive, Relatedness ([1]; all SAEs, subject 101-004, Moderate, day 23-57, Recovered / Resolved): Unrelated | SAE Cerebral haemorrhage (Left Frontal IPH), Relatedness ([1]; all SAEs, subject 101-004, Severe, day 58-62, Recovered / Resolved): Related | SAE Brain herniation (Cerebral herniation), Relatedness ([1]; all SAEs, subject 101-007, Severe, day 0-5, Fatal): Unrelated | SAE Respiratory failure (Hypoxic Respiratory Failure), Relatedness ([1]; all SAEs, subject 101-008, Moderate, day 2-4, Recovered / Resolved): Related | SAE Urinary tract infection, Relatedness ([1]; all SAEs, subject 101-013, Moderate, day 39-44, Recovered / Resolved): Unrelated | SAE Pulmonary embolism, Relatedness ([1]; all SAEs, subject 101-015, Severe, day 22-32, Recovered / Resolved): Unrelated | SAE Cerebral haemorrhage (Worsening of Intracerebral Hemorrhage), Relatedness ([1]; all SAEs, subject 101-018, Severe, day 0-6, Fatal): Unrelated | SAE Dural arteriovenous fistula, Relatedness ([1]; all SAEs, subject 102-002, Moderate, day 1-1, Recovered / Resolved): Unrelated | SAE Deep vein thrombosis (Left Popliteal Vein), Relatedness ([1]; all SAEs, subject 102-010, Severe, day 75-83, Recovered / Resolved): Unrelated | SAE Respiratory distress, Relatedness ([1]; all SAEs, subject 103-001, Moderate, day 1-35, Recovered / Resolved): Unrelated | SAE Brain herniation, Relatedness ([1]; all SAEs, subject 104-001, Severe, day 0-4, Fatal): Unrelated | SAE Partial seizures (Focal Seizure), Relatedness ([1]; all SAEs, subject 106-002, Severe, day 8-18, Recovered / Resolved): Unrelated | treatment emergent SAEs, number of events ([1]; deemed unlikely related to study drug): Eleven | Grand Total ([1]; non-serious TEAE events, Total severity): 230 (100) N (%) | Acute kidney injury [1, 6]: 4 (1.7) N (%) | Agitation [1, 6]: 5 (2.2) N (%) | Alcohol withdrawal syndrome [1, 6]: 1 (0.4) N (%) | Anemia [1, 6]: 5 (2.2) N (%) | Anxiety [1, 6]: 1 (0.4) N (%) | Atelectasis [1, 6]: 1 (0.4) N (%) | Atrial fibrillation [1, 6]: 1 (0.4) N (%) | Azotemia [1, 6]: 1 (0.4) N (%) | Bacteremia [1, 6]: 1 (0.4) N (%) | Benign prostatic hyperplasia [1, 6]: 1 (0.4) N (%) | Bladder catheterization [1, 6]: 1 (0.4) N (%) | Blood phosphorus decreased [1, 6]: 1 (0.4) N (%) | Bradycardia [1, 6]: 2 (0.9) N (%) | Brain edema [1, 6]: 2 (0.9) N (%) | Candida infection [1, 6]: 1 (0.4) N (%) | Chest pain [1, 6]: 2 (0.9) N (%) | Cognitive disorder [1, 6]: 1 (0.4) N (%) | Confusional state [1, 6]: 1 (0.4) N (%) | Constipation [1, 6]: 11 (4.8) N (%) | Cough [1, 6]: 1 (0.4) N (%) | Decubitus ulcer [1, 6]: 1 (0.4) N (%) | Deep vein thrombosis [1, 6]: 1 (0.4) N (%) | Dehydration [1, 6]: 1 (0.4) N (%) | Delirium [1, 6]: 5 (2.2) N (%) | Depressed mood [1, 6]: 3 (1.3) N (%) | Depression [1, 6]: 1 (0.4) N (%) | Diarrhea [1, 6]: 2 (0.9) N (%) | Dysphagia [1, 6]: 3 (1.3) N (%) | Dyspnea [1, 6]: 3 (1.3) N (%) | Edema [1, 6]: 2 (0.9) N (%) | Endotracheal intubation [1, 6]: 1 (0.4) N (%) | Eustachian tube dysfunction [1, 6]: 1 (0.4) N (%) | Exophthalmos [1, 6]: 1 (0.4) N (%) | Fall [1, 6]: 5 (2.2) N (%) | Flatulence [1, 6]: 2 (0.9) N (%) | Gastrointestinal hemorrhage [1, 6]: 1 (0.4) N (%) | Headache [1, 6]: 4 (1.7) N (%) | Helicobacter infection [1, 6]: 1 (0.4) N (%) | Hematocrit decreased [1, 6]: 1 (0.4) N (%) | Hydrocephalus [1, 6]: 3 (1.3) N (%) | Hyperchloremia [1, 6]: 2 (0.9) N (%) | Hyperglycemia [1, 6]: 5 (2.2) N (%) | Hyperlipidemia [1, 6]: 2 (0.9) N (%) | Hypermagnesemia [1, 6]: 2 (0.9) N (%) | Hypernatremia [1, 6]: 1 (0.4) N (%) | Hypocalcemia [1, 6]: 5 (2.2) N (%) | Hypoglycemia [1, 6]: 1 (0.4) N (%) | Hypokalemia [1, 6]: 4 (1.7) N (%) | Hypomagnesemia [1, 6]: 7 (3) N (%) | Hyponatremia [1, 6]: 7 (3) N (%) | Hypophosphatemia [1, 6]: 9 (3.9) N (%) | Hypotension [1, 6]: 2 (0.9) N (%) | Impulsive behaviour [1, 6]: 2 (0.9) N (%) | Intracranial pressure increased [1, 6]: 2 (0.9) N (%) | Lactic acidosis [1, 6]: 2 (0.9) N (%) | Leukocytosis [1, 6]: 9 (3.9) N (%) | Medical observation [1, 6]: 1 (0.4) N (%) | Muscle spasticity [1, 6]: 1 (0.4) N (%) | Musculoskeletal pain [1, 6]: 1 (0.4) N (%) | Nasal congestion [1, 6]: 3 (1.3) N (%) | Nausea [1, 6]: 7 (3) N (%) | Neuralgia [1, 6]: 2 (0.9) N (%) | Neurological decompensation [1, 6]: 1 (0.4) N (%) | Pain [1, 6]: 12 (5.2) N (%) | Partial seizures [1, 6]: 1 (0.4) N (%) | Patella fracture [1, 6]: 1 (0.4) N (%) | Pneumocephalus [1, 6]: 1 (0.4) N (%) | Pneumonia [1, 6]: 4 (1.7) N (%) | Pneumonia aspiration [1, 6]: 1 (0.4) N (%) | Pneumothorax [1, 6]: 2 (0.9) N (%) | Procedural pain [1, 6]: 1 (0.4) N (%) | Pulmonary congestion [1, 6]: 1 (0.4) N (%) | Pulmonary embolism [1, 6]: 1 (0.4) N (%) | Pyrexia [1, 6]: 6 (2.6) N (%) | Reflux gastritis [1, 6]: 1 (0.4) N (%) | Respiratory failure [1, 6]: 1 (0.4) N (%) | Scleral oedema [1, 6]: 1 (0.4) N (%) | Scrotal irritation [1, 6]: 1 (0.4) N (%) | Seizure [1, 6]: 2 (0.9) N (%) | Sepsis [1, 6]: 1 (0.4) N (%) | Sleep apnea syndrome [1, 6]: 1 (0.4) N (%) | Somnolence [1, 6]: 1 (0.4) N (%) | Staphylococcal infection [1, 6]: 1 (0.4) N (%) | Subarachnoid haemorrhage [1, 6]: 2 (0.9) N (%) | Tachycardia [1, 6]: 2 (0.9) N (%) | Tachypnea [1, 6]: 3 (1.3) N (%) | Thrombocytopenia [1, 6]: 3 (1.3) N (%) | Thrombocytosis [1, 6]: 1 (0.4) N (%) | Thrombosis [1, 6]: 1 (0.4) N (%) | Tremor [1, 6]: 1 (0.4) N (%) | Troponin increased [1, 6]: 1 (0.4) N (%) | Urinary incontinence [1, 6]: 1 (0.4) N (%) | Urinary retention [1, 6]: 4 (1.7) N (%) | Urinary tract infection [1, 6]: 4 (1.7) N (%) | Vomiting [1, 6]: 2 (0.9) N (%) | Treatment emergent SAE Pneumonia (Left upper lobe pneumonia), Relatedness ([1]; subject 101-004, Moderate, day 1-8, Recovered / Resolved): Related | Treatment emergent SAE Failure to thrive, Relatedness ([1]; subject 101-004, Moderate, day 23-57, Recovered / Resolved): Unrelated | Treatment emergent SAE Cerebral haemorrhage (Left Frontal IPH), Relatedness ([1]; subject 101-004, Severe, day 58-62, Recovered / Resolved): Related | Treatment emergent SAE Urinary tract infection, Relatedness ([1]; subject 101-013, Moderate, day 39-44, Recovered / Resolved): Unrelated | Treatment emergent SAE Pulmonary embolism, Relatedness ([1]; subject 101-015, Severe, day 22-32, Recovered / Resolved): Unrelated | Treatment emergent SAE Dural arteriovenous fistula, Relatedness ([1]; subject 102-002, Moderate, day 1-1, Recovered / Resolved): Unrelated | Treatment emergent SAE Deep vein thrombosis (Left Popliteal Vein), Relatedness ([1]; subject 102-010, Severe, day 75-83, Recovered / Resolved): Unrelated | Treatment emergent SAE Respiratory distress, Relatedness ([1]; subject 103-001, Moderate, day 1-35, Recovered / Resolved): Unrelated | Treatment emergent SAE Partial seizures (Focal Seizure), Relatedness ([1]; subject 106-002, Severe, day 8-18, Recovered / Resolved): Unrelated | Mean (SD) hematoma volume by CT ([2]; Day 1 after ICH): 25.1 (25.1) cm^3 | Mean (SD) hematoma volume by CT ([2]; Day 2 after ICH): 21.9 (24.9) cm^3 | Mean (SD) hematoma volume by CT ([2]; Day 5 after ICH): 19.7 (19.6) cm^3 | hematoma volumes versus 1:1 matched ERICH participants ([2]; Days 0, 1, 2, 5, box plots, descriptive): No difference | participants with incidence of hemorrhage extension ([2]; Nine of 38, one with clinical deterioration): 24% | Mean (SD) hematoma volume by CT ([2]; on admission): 22.8 (23.7) cm^3 | Accumulation, mean (SD) ratio of AUCs ([3]; Dose 1:Dose 13, SD): 1.3 (0.4) | CL ([3]; Maximum, N=6): 7.7 L/h | Vz ([3]; Maximum, N=6): 56.8 L | t1/2 ([3]; Maximum, N=6): 8.7 h | λz,ss ([3]; Maximum, N=6): 0.3 h⁻¹ | λz,ss ([3]; Mean, N=6, SD 0.1, after last dose): 0.2 h⁻¹ | λz,ss ([3]; Median, N=6): 0.2 h⁻¹ | CL ([3]; Minimum, N=6): 4.6 L/h | Vz ([3]; Minimum, N=6): 25.2 L | t1/2 ([3]; Minimum, N=6): 2.3 h | λz,ss ([3]; Minimum, N=6): 0.1 h⁻¹ | Mean (SD) maximum concentrations ([3]; dose 13, 1.0 mg/kg IV over 30 min every 6 h, plasma, LC-MS/MS, SD 1335.9): 5638.3 ng/mL | clearance ([3]; plasma, intravenous): 122 mL/min | Vd ([3]; plasma, intravenous, Mean, N=6, SD 12.1): 41.2 L | Vd ([3]; plasma, intravenous, Median, N=6): 37.2 L | half-life ([3]; plasma, intravenous, t1/2, Mean, N=6, SD 2.2, terminal phase): 4.5 h | half-life ([3]; plasma, intravenous, t1/2, Median, N=6): 3.8 h | clearance ([3]; plasma, iv): 113 mL/min
